Laboratory results: article PMC6838683, “Discovery of Human Signaling Systems: Pairing Peptides to G Protein-Coupled Receptors” (Cell, 2019)
Residues, ends and D or L forms follow the SMILES beside them.

Experiments:
Assay type in all cases: cell-based
GPR68 = GPR68 (Homo sapiens, UniProt Q15743); experiment: GloSensor cAMP assay (Gs), allosteric operational model fitting; parameters: expressed in transfected cells; host or cells: HEK293T, transient (PEI), co-transfected with GloSensor cAMP plasmid; conditions: for Log(ab/KB): allosteric operational model parameter, GPR68 GloSensor cAMP
Protocol: GPR68-mediated cAMP signaling was measured using GloSensor cAMP assays as published previously ([Huang et al., 2015], [Yu et al., 2019]) with modifications as indicated below. Calcium- and magnesium-free HBSS was supplemented with different organic buffer reagents for different pH solutions, 20 mM 2-(N-morpholino)ethanesulfonic acid (MES, Alfa Aesar) for pH 6.00 – 6.70, 20 mM 4-(2-hydroxyethyl)-1-piperazineethanesulfonic acid (HEPES, Fisher) for pH 6.80 – 8.20, and 20 mM (tris(hydroxymethyl)methylamino)propanesulfonic acid (TAPS) for pH 8.30 – 8.60. The phosphodiesterase (PDE) inhibitor Ro 20-1724 (10 μM final, Cayman Chemical) was included in pH buffers to eliminate potential effect of PDE […]. HEK293T cells were transfected with a modified polyethylenimine (PEI, Polysciences) transfection method ([Longo et al., 2013]). For a 15-cm dish of HEK293T cells with 25 mL growth medium, 8 μg receptor DNA and 8 μg GloSensor DNA (Promega) were mixed in 1 mL of Opti-MEM medium followed by addition of 80 μL PEI reagents. The mixture was added to cells after 20 min incubation at room temperature. Overnight transfected cells were plated in poly-L-lysine (Sigma) coated 384-well white clear bottom plates (Greiner Bio-One, #781098) using DMEM (Corning) + 1% dialyzed FBS (Omega Scientific) for at least 6 h (up to 24 h). Cells were removed of medium before receiving 20 μL/well of 3.5 mM luciferin (Goldbio) prepared in assay buffer (HBSS, 20 mM TAPS, pH 8.40, 10 μM Ro 20-1724) for 1 h at 37°C. Luciferin loading solutions were removed and premixed drug solutions at desired pH conditions were added to cells (25 μL/well). Luminescence was measured 25-30 min after drug application. Results were normalized (basal and maximum responses in the absence of modulator were set to be 0 and 100%) and pooled for analysis using GraphPad Prism.
All of the other parameters, including allosteric affinity cooperativity (α), allosteric modulator binding affinity KB, orthosteric agonist (protons) efficacy τA, system maximal response, and slope factor n were all globally shared for all datasets for each modulator. […] We therefore used an allosteric index, log(αβ/KB) ([Kenakin, 2017a]), which contains both allosteric binding affinity and cooperativity, to quantify the overall allosteric activity.

GPR55 [1] = target: T1, GPR55 (Homo sapiens, UniProt Q9Y2T6); experiment: Real-time receptor internalization (TR-FRET), concentration-response; parameters: hIL-2Ra signal peptide (N); expressed in transfected cells; conditions: receptor GPR55, mean, SEM and n (3-4); for EC50: read-out: Internalization assays pEC50 (converted)
Protocol: (§1) 48 hr prior to parallel assaying, SNAP-tagged oGPCR cells were plated (10,000 cells/well) in fibronectin-coated 384-well Epic biosensor microplates (Corning) and poly-D-lysine coated white 384-well plates (for internalization assays). SNAP- GLP-1 receptor was plated alongside orphan receptor cells as an internal assay control for internalization assays. Receptor-expression was induced with 0.1 μg/ml doxycycline.
A TR-FRET real-time internalization assay was used to examine peptide-dependent changes in orphan receptor localization as described previously ([Foster and Bräuner-Osborne, 2018]). Surface-expressed SNAP-tagged receptors were labeled with a cell-impermeable luminescent terbium cryptate (100 nM SNAP Lumi4-Tb; Cisbio, France) for 1 hr at 37°C. Cells were washed to remove excess terbium and incubated with fluorescein-O-acetic acid (100 μM; Sigma Aldrich) for 5 min at 37°C. Peptides were added as for DMR assays, and internalization responses were recorded for 60 min at 37°C using an EnVision 2104 Multimode plate reader (PerkinElmer). 100 nM GLP-1 was used as a positive control for SNAP-GLP1R internalization. Real-time internalization responses were calculated based on TR-FRET (excitation 340 nm; emission 520 nm and 615 nm), and were expressed as the ratio between donor (terbium) and acceptor (fluorescein) emission. For peptide screening analysis (both DMR and internalization assays), we calculated the area under the curve from the real-time traces. […] Validation experiments for receptor internalization were performed as above. Internalization data was processed in MS-Excel and area under the curve was used to generate concentration-response curves using GraphPad Prism 7.0. Data represent mean ± standard error of the mean (SEM) from at least 3 biologically independent experiments.

GPR55 [2] = target: T1, GPR55; experiment: Dynamic mass redistribution (DMR), concentration-response; parameters: hIL-2Ra signal peptide (N); expressed in transfected cells; conditions: receptor GPR55, mean; for DMR assays Emax (peak or AUC): SEM and n (1-4); for EC50: SEM and n (2-4), read-out: DMR assays pEC50 (converted)
Protocol: as §1
DMR assays provide a single integrated readout of ligand-dependent cellular response, utilizing an optical biosensor in specialized microplates to detect wavelength shifts of reflected light as it passes through the biosensor and the lower portion of the cell (∼150-200 nm). As a signal pathway agnostic approach, DMR assays are well-suited to the study of GPCRs ([Fang et al., 2008], [Schröder et al., 2011]). The mass redistribution response (Δ picometer (pm)) likely reflects a number of intracellular events, including cytoskeletal rearrangement, protein trafficking and receptor internalization. Orphan receptor-expressing cells were gently washed twice with assay buffer (HBSS with 1 mM CaCl2, 1 mM MgCl2, 20 mM HEPES, 0.01% pluronic F-68, pH 7.4) containing 0.1% DMSO and cells were equilibrated for 90 min at 22°C in the EPIC Benchtop (BT) System (Corning) to establish a stable DMR signal. After 3-5 min baseline recordings, peptides (10 μM) were added in duplicate wells using an electronic 384-channel Viaflo pipette (Integra Biosciences, Switzerland) and DMR responses were measured for 60 min at 22°C. 100 nM norepinephrine was included as an internal assay control to assess the cellular DMR response via endogenously-expressed adrenoceptors in the TREx 293 cells. Real-time data were processed using the BT to column converter MS-Excel macro (Corning) and analyzed in GraphPad Prism 7.0. DMR recordings in peptide screening experiments were buffer and solvent corrected and the area under the curve (AUC) was quantified. For subsequent validation experiments, peptides were diluted in assay buffer containing 0.1% DMSO and DMR assays were performed as above. […] Data represent mean ± standard error of the mean (SEM) from at least 3 biologically independent experiments.

T1 sequence (Q9Y2T6 2-319 limits assumed): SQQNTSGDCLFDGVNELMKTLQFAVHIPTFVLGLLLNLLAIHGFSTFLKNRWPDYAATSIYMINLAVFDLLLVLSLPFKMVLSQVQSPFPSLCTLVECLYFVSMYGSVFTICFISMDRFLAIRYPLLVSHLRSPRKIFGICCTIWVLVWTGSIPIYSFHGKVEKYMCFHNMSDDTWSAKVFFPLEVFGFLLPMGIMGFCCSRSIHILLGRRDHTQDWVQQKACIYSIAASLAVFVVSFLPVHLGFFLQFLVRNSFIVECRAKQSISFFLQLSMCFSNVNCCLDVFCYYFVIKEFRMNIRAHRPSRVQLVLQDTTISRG
Sequence of GPR68 (Q15743 whole entry): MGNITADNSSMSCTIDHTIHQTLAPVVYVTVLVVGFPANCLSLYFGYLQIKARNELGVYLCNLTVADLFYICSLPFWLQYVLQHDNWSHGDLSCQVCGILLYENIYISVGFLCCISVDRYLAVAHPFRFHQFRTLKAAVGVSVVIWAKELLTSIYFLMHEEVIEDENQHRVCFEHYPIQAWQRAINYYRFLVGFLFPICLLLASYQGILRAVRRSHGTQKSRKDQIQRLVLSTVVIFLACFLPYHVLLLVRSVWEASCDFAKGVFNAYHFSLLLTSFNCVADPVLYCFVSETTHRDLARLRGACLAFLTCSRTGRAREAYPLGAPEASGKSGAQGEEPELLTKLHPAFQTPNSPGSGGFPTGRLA

Row | Compound | Internalization assays Emax (AUC) (GPR55 [1]) | EC50 (GPR55 [1]) | DMR assays Emax (peak or AUC) (GPR55 [2]) | EC50 (GPR55 [2]) | further results
1 | Nc1nc(NCc2ccccc2)nc(-c2ccccc2CO)n1 [Ogerin] |  |  |  |  | Log(ab/KB) (GPR68; replicate 1): 5.25; Log(ab/KB) (GPR68; replicate 2): 5.23; Log(ab/KB) (GPR68; replicate 3): 5.25
2 | CC[C@H](C)[C@H](NC(=O)[C@H](CCCNC(=N)N)NC(=O)[C@H](C)NC(=O)CNC(=O)[C@H](CCCCN)NC(=O)[C@H](CCCNC(=N)N)NC(=O)[C@@H](NC(=O)[C@H](C)NC(=O)[C@H](CS)NC(=O)[C@H](CCC(N)=O)NC(=O)[C@H](CCC(=O)O)NC(=O)CNC(=O)[C@H](C)NC(=O)[C@H](CC(=O)O)NC(=O)[C@H](CS)NC(=O)[C@H](CCSC)NC(=O)[C@@H]1CCCN1C(=O)[C@@H](NC(=O)[C@H](CCC(N)=O)NC(=O)CNC(=O)[C@@H](N)Cc1ccc(O)cc1)C(C)C)C(C)C)C(=O)O [Pepetide 139] (H-YGQVPMCDAGEQCAVRKGARI-OH; N-terminus assumed) |  |  |  |  | Log(ab/KB) (GPR68; replicate 1): 5.24; Log(ab/KB) (GPR68; replicate 2): 5.36; Log(ab/KB) (GPR68; replicate 3): 5.40; Log(ab/KB) (GPR68; replicate 4): 5.40; Fold difference (GPR68; fold difference of ab/KB relative to Ogerin): 1.28
3 | CC[C@H](C)[C@H](NC(=O)CNC(=O)[C@H](CC(=O)O)NC(=O)[C@H](CO)NC(=O)[C@@H](N)Cc1c[nH]cn1)C(=O)N[C@@H](Cc1ccccc1)C(=O)N[C@H](C(=O)N[C@@H](CC(=O)O)C(=O)N[C@@H](CO)C(=O)N[C@@H](Cc1ccc(O)cc1)C(=O)N[C@@H](CO)C(=O)N[C@@H](CCCNC(=N)N)C(=O)N[C@@H](Cc1ccc(O)cc1)C(=O)N[C@@H](CCCNC(=N)N)C(=O)N[C@@H](CCCCN)C(=O)N[C@@H](CCC(N)=O)C(=O)N[C@@H](CCSC)C(=O)N[C@@H](C)C(=O)N[C@H](C(=O)O)C(C)C)[C@@H](C)O [Peptide 168.5] | 17.8 | 75900 nM | 31768 | 1 nM | 
4 | CC[C@H](C)[C@H](NC(=O)CNC(=O)[C@H](CC(=O)O)NC(=O)[C@H](CO)NC(=O)[C@@H](N)Cc1c[nH]cn1)C(=O)N[C@@H](Cc1ccccc1)C(=O)N[C@H](C(=O)N[C@@H](CC(=O)O)C(=O)N[C@@H](CO)C(=O)N[C@@H](Cc1ccc(O)cc1)C(=O)N[C@@H](CO)C(=O)N[C@@H](CCCNC(=N)N)C(=O)N[C@@H](Cc1ccc(O)cc1)C(=O)N[C@@H](CCCNC(=N)N)C(=O)N[C@@H](CCCCN)C(=O)N[C@@H](CCC(N)=O)C(=O)N[C@@H](CCSC)C(=O)N[C@@H](C)C(=O)N[C@H](C(=O)N[C@@H](CCCCN)C(=O)N[C@@H](CCCCN)C(=O)N[C@@H](Cc1ccc(O)cc1)C(=O)N[C@@H](CC(C)C)C(=O)N[C@@H](C)C(=O)N[C@@H](C)C(=O)N[C@H](C(=O)N[C@@H](CC(C)C)C(=O)NCC(=O)N[C@@H](CCCCN)C(=O)N[C@@H](CCCNC(=N)N)C(=O)N[C@@H](Cc1ccc(O)cc1)C(=O)N[C@@H](CCCCN)C(=O)N[C@@H](CCC(N)=O)C(=O)N[C@@H](CCCNC(=N)N)C(=O)N[C@H](C(=O)N[C@@H](CCCCN)C(=O)N[C@@H](CC(N)=O)C(=O)N[C@@H](CCCCN)C(=O)NCC(=O)N[C@@H](CCCNC(=N)N)C(=O)N[C@@H](CCCNC(=N)N)C(=O)N[C@H](C(=O)N[C@@H](C)C(=O)N[C@@H](Cc1ccc(O)cc1)C(=O)N[C@@H](CC(C)C)C(=O)O)[C@@H](C)CC)C(C)C)C(C)C)C(C)C)[C@@H](C)O [Peptide 168.6] |  | 0.115 nM |  | 331 nM | 
5 | CC(C)C[C@H](NC(=O)[C@@H](N)CC(=O)O)C(=O)N[C@@H](CC(C)C)C(=O)N1CCC[C@H]1C(=O)O [Peptide 213.1] (H-DLLP-OH) |  | 195 nM |  | 0.00724 nM | 
6 | C[C@H](NC(=O)[C@@H](N)Cc1c[nH]c2ccccc12)C(=O)N[C@@H](CCCNC(=N)N)C(=O)NCC(=O)N[C@@H](CS)C(=O)N[C@@H](CO)C(=O)N[C@H](C(=O)NCC(=O)N[C@@H](CC(N)=O)C(=O)O)[C@@H](C)O [Peptide 213.2] (H-WARGCSTGN-OH) |  | 0.724 nM |  | 0.0676 nM | 
7 | DLLPPRTPPYQVHISHREARGPSFRICVDFLG [Peptide 213.5] | 19.6 |  | -71711 |  | 
8 | HSDGIFTDSYSRYRKQMAVKKYLAAVL [168 original] | 32.4 |  | 312490 |  | 
9 | KRLGALFNPYFDPLQWKNSDFE [143 original] | 39.5 |  | 555860 |  | 
10 | KRYSRLDYLINGIYVDI [114 original] | 46.9 |  | 619843 |  | 
